Patent publication US20090061005A1, “Paliperidone Polymorphs” (ACTAVIS GROUP PTC EHF, priority 2007, published 2009)
“And” between values parts separate entries of the source, which are not always exact repeats. Equal entries are not always repeated.

Assays:
[1] = Extended drying of Form A2 under vacuum (retention of hydrate water); type: physicochemical; settings: drying for 12 hours at about 80° C. under vacuum
[2] = Water (moisture) content of Form A2 by TGA; type: physicochemical
Experimental: Thermogravimetric analysis (TGA) was performed with a NETZSCH STA 409C/CD instrument. The term “water content” refers to the content of water based upon the Loss on Drying method as described in Pharmacopeial Forum, Vol. 24, No. 1, page 5438 (January-February 1998). The calculation of water content is based upon the percent of weight that is lost by drying. For Form A2 the term “water content” refers to the content of water based upon a TGA measurement.

removal of moisture on extended drying [1]: moisture could not be removed | water content ([2]; Form A2 obtained by the process, stable and consistently reproducible): 2.5-4 % w/w | Moisture content ([2]; isolated solid after drying under high vacuum at 60-70° C. for about 12 hours): 4 % w/w and 2.7 % w/w
Structure (SMILES): Cc1nc2n(c(=O)c1CCN1CCC(c3noc4cc(F)ccc34)CC1)CCCC2O (racemic) [Form A2, (±)-3-[2-[4-(6-fluoro-1,2-benzisoxazol-3-yl)-1-piperidinyl]ethyl]-6,7,8,9-tetrahydro-9-hydroxy-2-methyl-4H-pyrido[1,2-a]pyrimidin-4-one]
